From patent US9340590B2 (priority 2011, dated 2016)
Where two headings read alike, the source gives them in different places. Positions of bridges follow the written chain, without caps; N, C: chain ends. Non-standard residues stand in square brackets, D forms with d. Residues, ends and D or L forms follow the SMILES beside them. Nva = CCC[C@H](N)C(=O)O

Experiments:
Assay in all cases: cell-based
hNav1.7 = hNav1.7 (Homo sapiens, UniProt Q15858); assay type: cell-based; details: IonWorks Quattro, read-out: IWQ Use Nav1.7
hNav1.5 = hNav1.5 (Homo sapiens, UniProt Q14524); details: IonWorks Quattro, read-out: IWQ Use Nav1.5
hNav1.3 = hNav1.3 (Homo sapiens, UniProt Q9NY46); details: IonWorks Quattro, read-out: IWQ Use Nav1.3

Sequence of hNav1.7 (Q15858 whole entry, looked up): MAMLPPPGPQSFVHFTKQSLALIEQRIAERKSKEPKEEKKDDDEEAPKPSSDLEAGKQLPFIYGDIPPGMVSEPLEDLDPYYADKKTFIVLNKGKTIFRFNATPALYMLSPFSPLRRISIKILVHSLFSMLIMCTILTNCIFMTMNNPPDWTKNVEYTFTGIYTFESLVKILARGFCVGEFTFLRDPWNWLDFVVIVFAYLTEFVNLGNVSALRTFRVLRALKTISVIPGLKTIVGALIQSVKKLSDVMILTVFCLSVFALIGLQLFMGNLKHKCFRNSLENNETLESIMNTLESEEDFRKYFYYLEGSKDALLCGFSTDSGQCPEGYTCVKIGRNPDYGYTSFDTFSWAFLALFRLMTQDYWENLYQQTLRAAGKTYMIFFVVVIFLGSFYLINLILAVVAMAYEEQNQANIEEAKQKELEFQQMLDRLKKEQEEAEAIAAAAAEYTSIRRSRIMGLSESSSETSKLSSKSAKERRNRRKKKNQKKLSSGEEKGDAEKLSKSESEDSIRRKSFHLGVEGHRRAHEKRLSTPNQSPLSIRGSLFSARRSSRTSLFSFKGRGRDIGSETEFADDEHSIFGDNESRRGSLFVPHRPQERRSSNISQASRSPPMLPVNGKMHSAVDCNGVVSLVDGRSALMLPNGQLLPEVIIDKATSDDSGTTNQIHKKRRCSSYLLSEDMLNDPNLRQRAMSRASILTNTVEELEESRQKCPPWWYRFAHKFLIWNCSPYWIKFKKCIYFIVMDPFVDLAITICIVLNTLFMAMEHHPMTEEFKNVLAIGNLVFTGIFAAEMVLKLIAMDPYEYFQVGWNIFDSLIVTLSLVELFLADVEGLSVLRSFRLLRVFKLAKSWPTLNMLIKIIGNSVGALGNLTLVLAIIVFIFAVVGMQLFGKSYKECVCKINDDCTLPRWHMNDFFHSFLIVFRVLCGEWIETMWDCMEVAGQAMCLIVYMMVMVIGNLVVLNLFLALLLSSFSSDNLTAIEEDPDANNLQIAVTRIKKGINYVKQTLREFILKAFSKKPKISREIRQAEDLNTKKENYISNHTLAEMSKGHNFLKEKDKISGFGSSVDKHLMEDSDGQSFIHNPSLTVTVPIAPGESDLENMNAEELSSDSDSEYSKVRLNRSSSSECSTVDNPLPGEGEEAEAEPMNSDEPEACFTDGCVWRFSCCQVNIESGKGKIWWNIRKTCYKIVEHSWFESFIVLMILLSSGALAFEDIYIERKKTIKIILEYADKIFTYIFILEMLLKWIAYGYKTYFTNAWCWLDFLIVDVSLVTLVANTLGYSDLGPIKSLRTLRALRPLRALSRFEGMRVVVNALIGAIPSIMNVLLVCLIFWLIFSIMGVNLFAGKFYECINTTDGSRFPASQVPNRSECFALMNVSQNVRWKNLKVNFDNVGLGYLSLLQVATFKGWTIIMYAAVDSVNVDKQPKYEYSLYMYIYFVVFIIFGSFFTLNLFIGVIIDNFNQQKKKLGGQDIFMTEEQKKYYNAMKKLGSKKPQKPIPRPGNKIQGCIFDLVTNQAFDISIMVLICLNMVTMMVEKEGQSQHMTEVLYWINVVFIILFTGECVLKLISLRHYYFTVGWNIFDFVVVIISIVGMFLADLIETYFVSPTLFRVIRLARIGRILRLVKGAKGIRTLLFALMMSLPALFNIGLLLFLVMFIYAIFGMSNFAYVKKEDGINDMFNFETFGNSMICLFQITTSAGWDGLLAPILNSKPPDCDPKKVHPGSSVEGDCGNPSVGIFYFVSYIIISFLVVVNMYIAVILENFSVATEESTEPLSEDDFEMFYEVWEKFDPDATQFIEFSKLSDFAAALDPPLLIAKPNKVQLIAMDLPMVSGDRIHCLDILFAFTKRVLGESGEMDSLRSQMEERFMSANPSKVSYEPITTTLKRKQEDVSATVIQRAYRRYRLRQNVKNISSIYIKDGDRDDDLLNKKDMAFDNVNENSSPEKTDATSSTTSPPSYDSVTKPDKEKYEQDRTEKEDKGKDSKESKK
Sequence of hNav1.5 (Q14524 whole entry, looked up): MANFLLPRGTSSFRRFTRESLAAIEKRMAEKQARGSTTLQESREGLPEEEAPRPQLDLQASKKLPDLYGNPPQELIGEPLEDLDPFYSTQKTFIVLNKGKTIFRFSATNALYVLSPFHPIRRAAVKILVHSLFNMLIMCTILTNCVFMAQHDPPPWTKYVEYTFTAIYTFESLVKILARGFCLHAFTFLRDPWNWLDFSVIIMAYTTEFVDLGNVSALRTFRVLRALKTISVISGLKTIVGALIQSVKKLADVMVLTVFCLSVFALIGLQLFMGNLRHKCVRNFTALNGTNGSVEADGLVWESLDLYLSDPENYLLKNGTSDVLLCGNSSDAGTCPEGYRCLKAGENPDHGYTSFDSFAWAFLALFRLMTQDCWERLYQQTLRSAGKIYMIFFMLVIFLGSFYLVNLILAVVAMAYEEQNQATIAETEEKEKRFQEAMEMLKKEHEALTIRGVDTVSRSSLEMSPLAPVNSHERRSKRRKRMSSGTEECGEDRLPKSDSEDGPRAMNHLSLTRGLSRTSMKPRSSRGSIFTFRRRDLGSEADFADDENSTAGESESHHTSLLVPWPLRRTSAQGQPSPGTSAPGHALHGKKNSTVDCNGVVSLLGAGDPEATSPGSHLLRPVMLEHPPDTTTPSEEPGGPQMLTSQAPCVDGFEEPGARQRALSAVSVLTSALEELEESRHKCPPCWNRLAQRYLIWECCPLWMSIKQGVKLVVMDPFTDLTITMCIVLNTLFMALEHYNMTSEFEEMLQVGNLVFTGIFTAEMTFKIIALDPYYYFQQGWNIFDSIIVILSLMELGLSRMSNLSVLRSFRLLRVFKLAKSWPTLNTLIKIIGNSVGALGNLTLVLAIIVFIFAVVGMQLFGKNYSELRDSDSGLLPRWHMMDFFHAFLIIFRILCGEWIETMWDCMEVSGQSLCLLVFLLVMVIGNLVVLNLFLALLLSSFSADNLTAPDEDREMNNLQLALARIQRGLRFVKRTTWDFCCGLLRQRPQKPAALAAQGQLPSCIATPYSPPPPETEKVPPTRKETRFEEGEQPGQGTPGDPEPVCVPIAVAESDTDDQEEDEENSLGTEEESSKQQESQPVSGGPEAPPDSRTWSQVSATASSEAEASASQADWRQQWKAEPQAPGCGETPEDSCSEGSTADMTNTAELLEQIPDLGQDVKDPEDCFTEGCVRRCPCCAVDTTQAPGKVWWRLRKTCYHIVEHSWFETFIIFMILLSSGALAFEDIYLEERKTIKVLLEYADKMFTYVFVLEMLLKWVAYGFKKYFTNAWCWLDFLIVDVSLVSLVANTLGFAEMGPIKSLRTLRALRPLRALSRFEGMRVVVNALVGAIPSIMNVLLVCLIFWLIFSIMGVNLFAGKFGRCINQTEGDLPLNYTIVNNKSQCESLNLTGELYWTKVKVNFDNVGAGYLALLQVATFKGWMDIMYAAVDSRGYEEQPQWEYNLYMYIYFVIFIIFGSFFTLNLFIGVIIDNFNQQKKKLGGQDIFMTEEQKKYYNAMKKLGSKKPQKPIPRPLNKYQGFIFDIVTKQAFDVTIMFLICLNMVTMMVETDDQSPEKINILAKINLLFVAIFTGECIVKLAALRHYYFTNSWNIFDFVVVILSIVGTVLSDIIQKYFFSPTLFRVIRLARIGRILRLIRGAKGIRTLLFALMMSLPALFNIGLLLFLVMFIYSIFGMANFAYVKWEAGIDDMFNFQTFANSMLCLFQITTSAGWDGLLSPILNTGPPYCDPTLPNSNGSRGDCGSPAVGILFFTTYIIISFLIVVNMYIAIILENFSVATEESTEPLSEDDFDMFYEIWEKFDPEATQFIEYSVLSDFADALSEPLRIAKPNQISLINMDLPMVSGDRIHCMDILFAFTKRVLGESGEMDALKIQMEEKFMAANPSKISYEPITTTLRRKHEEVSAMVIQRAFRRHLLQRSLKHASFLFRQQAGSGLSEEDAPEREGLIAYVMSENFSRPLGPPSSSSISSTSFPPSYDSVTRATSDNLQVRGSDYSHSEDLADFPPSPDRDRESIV

SMILES	IC50 (hNav1.7; use-dependent block, hNav1.7)	IC50 (hNav1.5; use-dependent block, hNav1.5)	IC50 (hNav1.3; use-dependent block, hNav1.3)	further results
CC[C@H](C)[C@@H]1NC(=O)[C@@H]2CSSC[C@@H]3NC(=O)[C@H](C(C)C)NC(=O)[C@H](CC(C)C)NC(=O)[C@H](CC(N)=O)NC(=O)[C@@H]4CCCN4C(=O)[C@H](CCCNC(=N)N)NC(=O)[C@H](CSSC[C@H](NC(=O)[C@@H](N)CC(=O)O)C(=O)N[C@@H](CC(C)C)C(=O)NCC(=O)N[C@@H](C)C(=O)N[C@@H](CCSC)C(=O)N[C@@H](CCCNC(=N)N)C(=O)N[C@@H](CCCCN)C(=O)N2)NC(=O)[C@H](CSSC[C@@H](C(=O)N[C@@H](CCCCN)C(=O)N[C@@H](Cc2ccc(O)cc2)C(=O)N[C@H](C(=O)N[C@@H](Cc2ccccc2)C(N)=O)C(C)C)NC(=O)[C@H](Cc2c[nH]c4ccccc24)NC(=O)[C@H](Cc2ccc(O)cc2)NC(=O)[C@H](Cc2c[nH]cn2)NC(=O)[C@H]([C@@H](C)O)NC(=O)[C@H](CCCNC(=N)N)NC(=O)[C@H](CO)NC3=O)NC(=O)[C@H](CCCCN)NC(=O)[C@H](CC(=O)O)NC(=O)[C@H](CC(N)=O)NC(=O)[C@H](CC(=O)O)NC(=O)[C@@H]2CCCN2C1=O [compound 765] (H-DCLGAMRKCIPDNDKCCRPNLVCSRTHYWCKYVF-NH2; disulfide 2-17, 9-23, 16-30)	0.79 µM	42 µM	1.4 µM	–
CC[C@H](C)[C@@H]1NC(=O)[C@@H]2CSSC[C@@H]3NC(=O)[C@H](C(C)C)NC(=O)[C@H](CC(C)C)NC(=O)[C@H](CC(N)=O)NC(=O)[C@@H]4CCCN4C(=O)[C@H](CCCNC(=N)N)NC(=O)[C@H](CSSC[C@H](NC(=O)[C@@H](N)CC(=O)O)C(=O)N[C@@H](CC(C)C)C(=O)NCC(=O)N[C@@H](C)C(=O)N[C@@H](Cc4ccccc4)C(=O)N[C@@H](CCCNC(=N)N)C(=O)N[C@@H](CCCCN)C(=O)N2)NC(=O)[C@H](CSSC[C@@H](C(=O)N[C@@H](CCCCN)C(=O)N[C@@H](Cc2ccc(O)cc2)C(=O)N[C@H](C(=O)N[C@@H](Cc2ccccc2)C(N)=O)C(C)C)NC(=O)[C@H](Cc2c[nH]c4ccccc24)NC(=O)[C@H](CCCCN)NC(=O)[C@H](Cc2c[nH]cn2)NC(=O)[C@H]([C@@H](C)O)NC(=O)[C@H](CCC(=O)O)NC(=O)[C@H](CO)NC3=O)NC(=O)[C@H](CCCCN)NC(=O)[C@H](CC(=O)O)NC(=O)[C@H](CC(N)=O)NC(=O)[C@H](CC(=O)O)NC(=O)[C@@H]2CCCN2C1=O [compound 735] (H-DCLGAFRKCIPDNDKCCRPNLVCSETHKWCKYVF-NH2; disulfide 2-17, 9-23, 16-30)	1.5 µM	41 µM	3.6 µM	–
CC[C@H](C)[C@@H]1NC(=O)[C@@H]2CSSC[C@@H]3NC(=O)[C@H](C(C)C)NC(=O)[C@H](CC(C)C)NC(=O)[C@H](CC(N)=O)NC(=O)[C@@H]4CCCN4C(=O)[C@H](CCCNC(=N)N)NC(=O)[C@H](CSSC[C@H](NC(=O)[C@@H](N)CC(=O)O)C(=O)N[C@@H](CC(C)C)C(=O)NCC(=O)N[C@@H](Cc4ccccc4)C(=O)N[C@@H](CCSC)C(=O)N[C@@H](CCCNC(=N)N)C(=O)N[C@@H](CCCCN)C(=O)N2)NC(=O)[C@H](CSSC[C@@H](C(=O)N[C@@H](CCCCN)C(=O)N[C@@H](Cc2ccc(O)cc2)C(=O)N[C@H](C(=O)N[C@@H](Cc2ccccc2)C(N)=O)C(C)C)NC(=O)[C@H](Cc2c[nH]c4ccccc24)NC(=O)[C@H](CCCCN)NC(=O)[C@H](Cc2ccc(O)cc2)NC(=O)[C@H]([C@@H](C)O)NC(=O)[C@H](CCCNC(=N)N)NC(=O)[C@H](CO)NC3=O)NC(=O)[C@H](CCCCN)NC(=O)[C@H](CC(=O)O)NC(=O)[C@H](CC(N)=O)NC(=O)[C@H](CC(=O)O)NC(=O)[C@@H]2CCCN2C1=O [compound 110] (H-DCLGFMRKCIPDNDKCCRPNLVCSRTYKWCKYVF-NH2; disulfide 2-17, 9-23, 16-30)	–	–	–	IC50 (hNav1.7; Table 23, use, […]): 0.19 µM; IC50 (hNav1.5; Table 23, use, […]): 6.39 µM; IC50 (hNav1.3; Table 23, use, […]): 0.31 µM
CC[C@H](C)[C@@H]1NC(=O)[C@@H]2CSSC[C@@H]3NC(=O)[C@H](C(C)C)NC(=O)[C@H](CC(C)C)NC(=O)[C@H](CC(N)=O)NC(=O)[C@@H]4CCCN4C(=O)[C@H](CCCNC(=N)N)NC(=O)[C@H](CSSC[C@H](NC(=O)[C@@H](N)CC(=O)O)C(=O)N[C@@H](CC(C)C)C(=O)NCC(=O)N[C@@H](C)C(=O)N[C@@H](CC(C)C)C(=O)N[C@@H](CCCNC(=N)N)C(=O)N[C@@H](CCCCN)C(=O)N2)NC(=O)[C@H](CSSC[C@@H](C(=O)N[C@@H](CCCCN)C(=O)N[C@@H](Cc2ccc(O)cc2)C(=O)N[C@H](C(=O)N[C@@H](Cc2ccccc2)C(=O)O)C(C)C)NC(=O)[C@H](Cc2c[nH]c4ccccc24)NC(=O)[C@H](CCCNC(=N)N)NC(=O)[C@H](Cc2c[nH]cn2)NC(=O)[C@H]([C@@H](C)O)NC(=O)[C@H](CCCNC(=N)N)NC(=O)[C@H](CO)NC3=O)NC(=O)[C@H](CCCCN)NC(=O)[C@H](CC(=O)O)NC(=O)[C@H](CC(C)C)NC(=O)[C@H](CC(=O)O)NC(=O)[C@@H]2CCCN2C1=O [compound 867] (H-DCLGALRKCIPDLDKCCRPNLVCSRTHRWCKYVF-OH; disulfide 2-17, 9-23, 16-30)	> 5 µM	> 5 µM	4.9 µM	–
CC[C@H](C)[C@@H]1NC(=O)[C@@H]2CSSC[C@@H]3NC(=O)[C@H](C(C)C)NC(=O)[C@H](CC(C)C)NC(=O)[C@H](CC(N)=O)NC(=O)[C@@H]4CCCN4C(=O)[C@H](CCCNC(=N)N)NC(=O)[C@H](CSSC[C@H](NC(=O)[C@@H](N)CC(=O)O)C(=O)N[C@@H](CC(C)C)C(=O)NCC(=O)N[C@@H](C)C(=O)N[C@@H](Cc4ccccc4)C(=O)N[C@@H](CCCNC(=N)N)C(=O)N[C@@H](CCCCN)C(=O)N2)NC(=O)[C@H](CSSC[C@@H](C(=O)N[C@@H](CCCCN)C(=O)N[C@@H](Cc2ccc(O)cc2)C(=O)N[C@H](C(=O)N[C@@H](Cc2ccccc2)C(=O)O)C(C)C)NC(=O)[C@H](Cc2c[nH]c4ccccc24)NC(=O)[C@H](CCCNC(=N)N)NC(=O)[C@H](Cc2c[nH]cn2)NC(=O)[C@H]([C@@H](C)O)NC(=O)[C@H](CCCNC(=N)N)NC(=O)[C@H](CO)NC3=O)NC(=O)[C@H](CCCCN)NC(=O)[C@H](CC(=O)O)NC(=O)[C@H](CC(=O)O)NC(=O)[C@H](CC(=O)O)NC(=O)[C@@H]2CCCN2C1=O [compound 837]	> 5 µM	> 5 µM	2.3 µM	–
CCC[C@@H]1NC(=O)CNC(=O)[C@H](CC(C)C)NC(=O)[C@@H](NC(=O)[C@@H](N)CC(=O)O)CSSC[C@@H]2NC(=O)[C@@H]3CSSC[C@@H](C(=O)N[C@@H](CCCCN)C(=O)N[C@@H](Cc4ccc(O)cc4)C(=O)N[C@H](C(=O)N[C@@H](Cc4ccccc4)C(N)=O)C(C)C)NC(=O)[C@H](Cc4c[nH]c5ccccc45)NC(=O)[C@H](CCC(=O)O)NC(=O)[C@H](Cc4c[nH]cn4)NC(=O)[C@H]([C@@H](C)O)NC(=O)[C@H](CCCNC(=N)N)NC(=O)[C@H](CO)NC(=O)[C@H](CSSC[C@H](NC(=O)[C@H](CCCCN)NC(=O)[C@H](CCCNC(=N)N)NC(=O)[C@H](CCSC)NC1=O)C(=O)N[C@@H]([C@@H](C)CC)C(=O)N1CCC[C@H]1C(=O)N[C@@H](CC(=O)O)C(=O)N[C@@H](CC(N)=O)C(=O)N[C@@H](CC(=O)O)C(=O)N[C@@H](CCCCN)C(=O)N3)NC(=O)[C@H](C(C)C)NC(=O)[C@H](CC(C)C)NC(=O)[C@H](CC(N)=O)NC(=O)[C@@H]1CCCN1C(=O)[C@H](CCCNC(=N)N)NC2=O [compound 705] (H-DCLG[Nva]MRKCIPDNDKCCRPNLVCSRTHEWCKYVF-NH2; disulfide 2-17, 9-23, 16-30)	–	–	–	IC50 (hNav1.7; use-dependent protocol, hNav1.7): 0.43 µM; IC50 (hNav1.5; use-dependent protocol, hNav1.5): 33 µM; IC50 (hNav1.3; use-dependent protocol, hNav1.3): 3.4 µM
CC[C@H](C)[C@@H]1NC(=O)[C@@H]2CSSC[C@@H]3NC(=O)[C@H](C(C)C)NC(=O)[C@H](CC(C)C)NC(=O)[C@H](CC(N)=O)NC(=O)[C@@H]4CCCN4C(=O)[C@H](CCCNC(=N)N)NC(=O)[C@H](CSSC[C@H](NC(=O)[C@@H](N)CC(=O)O)C(=O)N[C@@H](CC(C)C)C(=O)NCC(=O)N[C@@H](Cc4ccccc4)C(=O)N[C@@H](CCSC)C(=O)N[C@@H](CCCNC(=N)N)C(=O)N[C@@H](CCCCN)C(=O)N2)NC(=O)[C@H](CSSC[C@@H](C(=O)N[C@@H](CCCCN)C(=O)N[C@H](C(=O)N[C@H](C(=O)N[C@@H](Cc2ccccc2)C(N)=O)C(C)C)[C@@H](C)O)NC(=O)[C@H](Cc2c[nH]c4ccccc24)NC(=O)[C@H](CCCCN)NC(=O)[C@H](Cc2c[nH]cn2)NC(=O)[C@H]([C@@H](C)O)NC(=O)[C@H](CCCNC(=N)N)NC(=O)[C@H](CO)NC3=O)NC(=O)[C@H](CCCCN)NC(=O)[C@H](CC(=O)O)NC(=O)[C@H](CC(N)=O)NC(=O)[C@H](CC(=O)O)NC(=O)[C@@H]2CCCN2C1=O [compound 369] (H-DCLGFMRKCIPDNDKCCRPNLVCSRTHKWCKTVF-NH2; disulfide 2-17, 9-23, 16-30)	–	–	–	IC50 (hNav1.7; Table 25, use, […]): 3.54 µM; IC50 (hNav1.5; Table 25, use, […]): 11.1 µM; IC50 (hNav1.3; Table 25, use, […]): 3.29 µM
